Data: article PMC11326411, “PET imaging of [52 Mn]Mn-DOTATATE and [52 Mn]Mn-DOTA-JR11” (Research Square, 2024)
Where a SMILES comes first, the peptide text is derived from it. Bridges are numbered along the chain shown (N, C = ends). [ ]: non-standard residue; d: D form. The star is where a group is joined. DOTA = O=C(O)CN1CCN(CC(=O)O)CCN(CC(=O)*)CCN(CC(=O)O)CC1; dPhe(4-NHCONH2) = NC(=O)Nc1ccc(C[C@@H](N)C(=O)O)cc1; Dihydroorotyl(S) = O=C1C[C@@H](C(=O)*)NC(=O)N1; Phe(4-Cl) = N[C@@H](Cc1ccc(Cl)cc1)C(=O)O; Phe(4-NH2) = Nc1ccc(C[C@H](N)C(=O)O)cc1

What was measured:
AR42J cells = assay: Cell internalization assay in AR42J cells; type: cell-based, rat; details: for internalization fraction (of total activity): 2 h incubation
Experimental: At each time point, the media was removed, and cells were washed 3 times with ice-cold PBS. To determine the surface bound fraction, 0.5 mL of 0.1 M citric acid (pH 5) was added to each well and incubated for 5 min. The fraction was collected into a microcentrifuge tube followed by addition of 0.5 mL gentle wash of PBS. To determine the internalized activity, 0.5 mL of 0.2 M NaOH was added to each well and incubated at 37°C for 5 min. This fraction was collected in a separate tube followed by addition of 0.5 mL of PBS wash. The final results were expressed as a percentage of the total activity that was present in each of the two fractions.

SSTR2 + AR42J cells = assay: Cell uptake in AR42J cells; type: cell-based, rat
Experimental: (§1) 1×10^5 AR42J, A549, and MCF-7 cells were seeded onto 24-well plates (n = 6) and incubated at 37°C 48 h before study. […] The cells were incubated at 37°C under 5% CO2 for 2 h. Following incubation, the media was removed, and the cells were washed 3 times with ice-cold PBS. 500 μL of 0.2 M NaOH was added to detach the cells before collection into microcentrifugetubes followed by a 500 μL wash of PBS. Associated radioactivity was counted on a HIDEX (Turku, Finland) AGM gamma counter.
(§2) To normalize the counts to the total protein amount, a BCA protein assay (ThermoFisher Scientific) was performed, and the final data reported in % cell uptake/mg of protein.

A549 cells = assay: Cell uptake in A549 cells; type: cell-based, human; details: A549, 0.5 nM, 2 h, 37°C, per mg protein; Fig. 3A study
Experimental: as §1, §2

[1] = Stability of the radioligands in mouse serum; details: 37°C, 5 days post incubation, radio-TLC
Experimental: At the specified time points, 40 μL of serum/radioligand mixture was collected and combined with an equal amount of methanol to separate serum proteins, as described in a previously published protocol on metabolite extraction and protein removal [19]. The supernatant was analyzed using both radio TLC and radio HPLC, as described above to determine the percentage intact complex.

in vivo = details: mouse, total radioactivity, Biodistribution
Experimental: Subcutaneous tumor xenograft models for AR42J were established by implanting 1×10^6 cells in complete cell media subcutaneously into the right shoulder 3–4 weeks (tumor average diameter of between 5–7 mm) before study.
Mice (n = 4 per group) were anesthetized with 2.5% isoflurane in oxygen and were injected via the retroorbital sinus. After injection, at 4, 24, and 48 h, mice were imaged on a Sofie GNEXT PET/CT small animal scanner (Sofie Biosciences, Dulles, VA, USA). At each time point, 30 min of PET data were acquired followed by a 3-min CT at 80 kVp for anatomical reference. At each time point post imaging, mice were euthanized, and organs were collected, weighed, and counted for associated radioactivity on gamma counter. Radioactivity uptake was calculated as the percent injected dose per gram of tissue (% ID/g).

MCF-7 cells = assay: Cell uptake in MCF-7 cells; type: cell-based, human; details: MCF-7, 0.5 nM, 2 h, 37°C, per mg protein; Fig. 3A study
Experimental: as §1, §2

[2] = 2 h incubation at 37°C, comparative study Fig. 4A

| intact complex [1] | tissue uptake at 4 h (in vivo; Blood (μL)) | tissue uptake at 4 h (in vivo; Fat) | tissue uptake at 4 h (in vivo; Small Intestines) | SMILES | total activity internalized (AR42J cells) | internalization fraction (of total activity) (AR42J cells) | cell uptake (SSTR2 + AR42J cells; 0.5 nM, 2 h, 37°C, per mg protein, Fig. 3A study) | cell uptake (SSTR2 + AR42J cells; [2]) | cell uptake (A549 cells) | cell uptake (MCF-7 cells) |
| --- | --- | --- | --- | --- | --- | --- | --- | --- | --- | --- |
| > 95% | 0.91 ± 0.05 %ID/g | 0.52 ± 0.19 %ID/g | 1.32 ± 0.46 %ID/g | C[C@@H](O)[C@H](NC(=O)[C@@H]1CSSC[C@H](NC(=O)[C@@H](Cc2ccccc2)NC(=O)CN2CCN(CC(=O)O)CCN(CC(=O)O)CCN(CC(=O)O)CC2)C(=O)N[C@@H](Cc2ccc(O)cc2)C(=O)N[C@H](Cc2c[nH]c3ccccc23)C(=O)N[C@@H](CCCCN)C(=O)N[C@@H]([C@@H](C)O)C(=O)N1)C(=O)O [[^52Mn]Mn-DOTATATE] | 53.13 ± 1.83% | 53.13 ± 1.83% | 18.25 ± 1.31 % /mg | 11.95 ± 0.71 %/ mg | 4.07 ± 0.88 % /mg | 2.30 ± 0.20 % /mg |
| – | – | – | – | C[C@@H](O)[C@@H]1NC(=O)[C@H](CCCCN)NC(=O)[C@@H](Cc2ccc(NC(N)=O)cc2)NC(=O)[C@H](Cc2ccc(NC(=O)[C@@H]3CC(=O)NC(=O)N3)cc2)NC(=O)[C@H](NC(=O)[C@H](Cc2ccc(Cl)cc2)NC(=O)CN2CCN(CC(=O)O)CCN(CC(=O)O)CCN(CC(=O)O)CC2)CSSC[C@@H](C(=O)N[C@H](Cc2ccc(O)cc2)C(N)=O)NC1=O [[^52Mn]Mn-DOTA-JR11] ({DOTA}-[Phe(4-Cl)][dC][Phe(4-NH2)](Dihydroorotyl(S))[dPhe(4-NHCONH2)]KTC[dY]-NH2; disulfide 2-7 (inferred); C-terminus assumed) | 20.85 ± 0.59% | 20.85 ± 0.59% | – | 7.13 ± 0.38 %/ mg | – | – |
